# “And” between values parts separate entries of the source, which are not always exact repeats. Identical values can stand only once.
# Test: CD4 mimetic activity at gp120 in HIV-1 KP-5mvcR infected in human TZM-bl cells assessed as inhibition of viral entry by measuring reduction in RLU by single round assay
row,IC50,Compound
1,6.7 µM,COCCOCCOCCOCCOCCOCCOCCOCCOCCOCCOCCOCCNC(=O)CCC(=O)N[C@@H](CCCNC(=N)N)C(=O)NCCN1CCC(NC(=O)C(=O)Nc2ccc(Cl)cc2)CC12CCCCC2 (stereo partly drawn)
2,> 100 µM,COCCOCCOCCOCCOCCOCCOCCOCCOCCOCCOCCOCCNC(=O)CCC(=O)N[C@@H](CCCNC(=N)N)C(=O)NCCN1CCC(NC(=O)C(=O)Nc2ccc(F)nc2)CC12CCCCC2 (stereo partly drawn)
3,0.29 µM and 1.5 µM,N=C(N)NCCCCC(=O)NCCN1CCC(NC(=O)C(=O)Nc2ccc(Cl)cc2)CC12CCCCC2 (stereo not drawn)
4,0.27 µM,"CC1(C)CC(NC(=O)C(=O)Nc2ccc(Cl)cc2)CC(C)(C)N1 [N-(4-chlorophenyl)-N'-(2,2,6,6-tetramethylpiperidin-4-yl)-oxalamide]"
5,5.1 µM,CC1(C)CC(NC(=O)C(=O)Nc2ccc(F)nc2)CC(C)(C)N1
6,> 100 µM,N=C(N)NCCCCC(=O)NCCN1CCC(NC(=O)C(=O)Nc2ccc(Cl)cn2)CC1
7,> 100 µM,N=C(N)NCCCCC(=O)NCCN1CCC(NC(=O)CNc2ccc(Cl)cn2)CC1
8,> 100 µM,N=C(N)NCCCCC(=O)NCCN1CCC(NC(=O)C(=O)Nc2cncc(F)c2)CC12CCCCC2 (stereo not drawn)
